Data published in US20040034879A1, “Mammalian sex selection using genetic modification” (priority 2000, published 2004).

Legend:
[1] = test system: sperm comprising an X chromosome; test: Sex of offspring sired by male mice carrying TP1-HSV tk (transgene (a)) on the X chromosome; assay type: in vivo, mouse; settings: after two weeks of gancyclovir administration, crossed with non-transgenic female mice
Description: The mice transformed with transgene (a), as described above, express HSV tk on the X chromosome of maturing sperm. Gancyclovir. from about 5 to about 15 mg/kg body weight, is administered to transgenic mice expressing HSV tk via injection. Upon gancyclovir administration, HSV tk forms toxic metabolites that leads to the ablation of sperm comprising an X chromosome. The TP1 regulatory region is activated post-meiotically, so that Y bearing sperm are not effected. Thus, the transformed male mouse comprises exclusively Y bearing sperm and produces male offspring, upon gancyclovir administration. An exemplary gancyclovir administration regime comprises two weeks of administration prior to mating, thereby destroying X chromosome-bearing sperm prior to mating. Male mice carrying transgene HSV tk (transgene (a)) are crossed non-transgenic female mice. Without gancyclovir administration, half of the offspring are male and half are female. The female offspring carry the transgene on the X chromosome. After two weeks of gancyclovir administration, male mice carrying transgene (a) are crossed with non-transgenic female mice. The resulting offspring are all male.

[2] = test system: Human 293 cells; test: Luciferase activity after transient co-transfection with pCMV-Luc; assay type: cell-based; settings: 48 hours after co-transfection with pBS-CMV-tTA-Barnase-Barstar and pCMV-Luc; tetracycline pretreatment, 2 μg/ml
Description: Cell culture and transient transfection: Human 293 cells from embryonal kidney were maintained at 37° C., 5% CO2 in α-MEM supplemented with 10% fetal bovine serum. Transfections by calcium phosphate co-precipitation were performed according to standard protocols. Transfections were carried out in 35 mm dishes, using 1 μg of plasmid together with 0.5 μg of pCMV-Luc or pCMV-GFP. Control trasfections contained 1 μg of empty pTRE plasmid DNA together with 0.5 μg of either pCMV-Luc or pCMV-GFP. Tetracycline was used at a concentration of 2 μg/ml, and added shortly after cells were transfected, unless otherwise indicated. All data were from three replicate plates and the experiments were repeated twice.
Luciferase activity: Twenty-four hours following transfection, media was removed, cells were washed with PBS and luciferase assays were performed as described in Yin et al (1996) with Promega luciferase assay system, using 10 μl lysate and 50 μl luciferase substrate. Activity was measured with a Turner TD-20e luminometer. Protein concentrations in different lysates were determined by Bradford assays (Bio-Rad), and luciferase activity per μg protein determined.

| SMILES | sex of the resulting offspring [1] | luciferase activity in cells treated with tetracycline versus those not treated [2] [fold] |
| --- | --- | --- |
| Nc1nc(O)c2ncn(COC(CO)CO)c2n1 [gancyclovir] | all male | – |
| CN(C)[C@@H]1C(O)=C(C(N)=O)C(=O)[C@@]2(O)C(O)=C3C(=O)c4c(O)cccc4[C@@](C)(O)[C@H]3C[C@@H]12 [tetracycline] | – | ~6 |
